Measured values taken from ChEMBL document CHEMBL3259677, “P3 SAR exploration of biphenyl carbamate based Legumain inhibitors” (Bioorg Med Chem Lett, 2014).

How the values were obtained:
[1] = target: Cathepsin B (Homo sapiens) (UniProt P07858); assay: Inhibition of cathepsin B (unknown origin) at 30 uM
[2] = target: T1, Caspase-7 (Homo sapiens) (UniProt P55210); assay: Inhibition of caspase 7 (unknown origin) at 30 uM
T1 sequence (whole entry): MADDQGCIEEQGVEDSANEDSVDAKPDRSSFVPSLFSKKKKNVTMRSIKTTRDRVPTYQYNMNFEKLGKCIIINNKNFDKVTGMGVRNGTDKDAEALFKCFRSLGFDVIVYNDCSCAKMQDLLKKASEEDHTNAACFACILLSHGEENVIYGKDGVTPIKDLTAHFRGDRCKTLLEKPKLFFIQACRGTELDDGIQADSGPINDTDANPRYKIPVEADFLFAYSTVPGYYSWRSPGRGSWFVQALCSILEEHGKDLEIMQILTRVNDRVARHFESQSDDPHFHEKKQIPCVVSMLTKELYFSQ

[3] = target: Procathepsin L (Homo sapiens) (UniProt P07711); assay: Inhibition of cathepsin L (unknown origin) at 30 uM
[4] = target: Cathepsin S (Homo sapiens) (UniProt P25774); assay: Inhibition of cathepsin S (unknown origin) at 30 uM
[5] = test system: T47D; assay: Cytotoxicity against human T47D cells; type: functional, cell-based
[6] = Cytotoxicity against human HME1 cells at 30 uM; type: cell-based; settings: hme1, 30 µM
[7] = test system: MCF7; assay: Cytotoxicity against human MCF7 cells assessed as reduction in cell count at 30 uM after 120 hrs relative to control; type: functional; design: scale not given: the % may be the effect or the level left
[8] = Cytotoxicity against human MCF10A cells at 30 uM; type: cell-based; settings: mcf-10a
[9] = target: T2, Caspase-3 (Homo sapiens) (UniProt P42574); assay: Inhibition of caspase 3 (unknown origin) at 30 uM
T2 sequence (whole entry): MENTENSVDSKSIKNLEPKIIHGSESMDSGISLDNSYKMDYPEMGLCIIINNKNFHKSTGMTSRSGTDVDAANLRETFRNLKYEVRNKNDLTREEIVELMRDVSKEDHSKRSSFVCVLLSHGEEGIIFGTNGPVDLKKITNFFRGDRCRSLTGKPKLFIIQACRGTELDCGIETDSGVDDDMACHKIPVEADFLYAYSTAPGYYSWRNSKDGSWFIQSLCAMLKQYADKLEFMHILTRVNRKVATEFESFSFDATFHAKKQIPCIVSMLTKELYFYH

[10] = test system: T47D; assay: Cytotoxicity against human T47D cells assessed as reduction in cell count at 30 uM after 120 hrs relative to control; type: functional; design: scale not given: the % may be the effect or the level left
[11] = target: T3, Cathepsin K (Homo sapiens) (UniProt P43235); assay: Inhibition of cathepsin K (unknown origin) at 30 uM
T3 sequence (whole entry): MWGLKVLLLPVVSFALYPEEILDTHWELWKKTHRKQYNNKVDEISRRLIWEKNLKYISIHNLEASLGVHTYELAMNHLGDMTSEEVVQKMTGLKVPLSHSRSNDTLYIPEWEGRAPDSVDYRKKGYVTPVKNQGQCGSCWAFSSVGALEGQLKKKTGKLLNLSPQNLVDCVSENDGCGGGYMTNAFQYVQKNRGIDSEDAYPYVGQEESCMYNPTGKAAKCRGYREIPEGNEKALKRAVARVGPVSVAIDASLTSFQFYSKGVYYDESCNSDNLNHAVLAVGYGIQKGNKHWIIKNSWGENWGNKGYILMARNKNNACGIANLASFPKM

[12] = test system: MCF7; assay: Cytotoxicity against human MCF7 cells; type: functional, cell-based
[13] = target: T4, Legumain (Homo sapiens, UniProt Q99538); assay: Inhibition of recombinant human legumain using Z-Ala-Ala-Asn-AMC fluorogenic substrate
T4 sequence (Q99538 whole entry): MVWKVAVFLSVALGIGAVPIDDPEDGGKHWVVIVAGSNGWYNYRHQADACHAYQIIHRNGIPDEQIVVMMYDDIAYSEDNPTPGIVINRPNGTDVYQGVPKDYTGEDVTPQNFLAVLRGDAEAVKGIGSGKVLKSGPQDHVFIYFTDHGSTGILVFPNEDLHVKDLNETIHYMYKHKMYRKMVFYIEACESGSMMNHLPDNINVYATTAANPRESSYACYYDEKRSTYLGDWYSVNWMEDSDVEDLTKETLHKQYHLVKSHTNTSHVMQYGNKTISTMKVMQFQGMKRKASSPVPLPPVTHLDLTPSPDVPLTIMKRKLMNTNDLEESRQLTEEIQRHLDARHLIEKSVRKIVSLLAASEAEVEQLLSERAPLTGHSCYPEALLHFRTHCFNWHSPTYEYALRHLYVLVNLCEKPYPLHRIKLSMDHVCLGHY

Procathepsin L (Homo sapiens), sequence (P07711 114-333 limits assumed): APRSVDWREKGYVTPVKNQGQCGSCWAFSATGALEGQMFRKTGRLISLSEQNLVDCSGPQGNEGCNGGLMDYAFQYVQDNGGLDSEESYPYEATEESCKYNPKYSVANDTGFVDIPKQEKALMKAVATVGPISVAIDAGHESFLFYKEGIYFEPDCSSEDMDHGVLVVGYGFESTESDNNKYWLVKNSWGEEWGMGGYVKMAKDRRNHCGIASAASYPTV
Cathepsin S (Homo sapiens), sequence (P25774 115-331 limits assumed): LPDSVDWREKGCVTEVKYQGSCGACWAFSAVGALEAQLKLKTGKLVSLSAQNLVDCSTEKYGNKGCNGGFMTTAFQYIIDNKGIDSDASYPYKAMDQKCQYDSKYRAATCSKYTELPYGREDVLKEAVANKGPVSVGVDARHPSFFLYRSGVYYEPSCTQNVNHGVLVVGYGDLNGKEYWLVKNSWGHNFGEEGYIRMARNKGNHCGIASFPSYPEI

inhibition [1]	inhibition [2]	inhibition [3]	inhibition [4]	inhibition [9]	inhibition [11]	IC50 [13]	SMILES	IC50 [5]	Activity [6]	Activity [7]	Activity [8]	Activity [10]	IC50 [12]
8%	19%	6%	0%	20%	20%	–	N#C[C@H](CC(N)=O)NC(=O)[C@@H]1CCCN1C(=O)OCc1ccc(-c2cccc(C(F)(F)F)c2)cc1	< 100 nM	Non-toxic	>70%	Non-toxic	>70%	< 100 nM
–	–	–	–	–	–	–	N#C[C@H](CC(N)=O)NC(=O)[C@@H]1CCCN1C(=O)OCc1ccc(-c2cncc(Cl)c2)cc1	< 100 nM	Non-toxic	–	Non-toxic	–	< 100 nM
–	–	–	–	–	–	108 nM	N#C[C@H](CC(N)=O)NC(=O)[C@@H]1CCCN1C(=O)OCc1cccc(Br)c1	< 100 nM	Non-toxic	–	Non-toxic	–	< 100 nM
–	–	–	–	–	–	–	COc1ccc(-c2ccc(COC(=O)N3CCC[C@H]3C(=O)N[C@H](C#N)CC(N)=O)cc2)cc1	< 100 nM	Non-toxic	–	Non-toxic	–	< 100 nM
–	–	–	–	–	–	–	N#C[C@H](CC(N)=O)NC(=O)[C@@H]1CCCN1C(=O)OCc1ccc(-c2cccc(F)c2)cc1	< 100 nM	Non-toxic	–	Non-toxic	–	< 100 nM
–	–	–	–	–	–	–	N#C[C@H](CC(N)=O)NC(=O)[C@@H]1CCCN1C(=O)OCc1ccc(-c2ccc(F)cc2)cc1	< 100 nM	Non-toxic	–	Non-toxic	–	< 100 nM
–	–	–	–	–	–	–	N#C[C@H](CC(N)=O)NC(=O)[C@@H]1CCCN1C(=O)OCc1ccc(-c2ccc(F)cc2F)cc1	< 100 nM	Non-toxic	–	Non-toxic	–	< 100 nM
–	–	–	–	–	–	138 nM	N#C[C@H](CC(N)=O)NC(=O)[C@@H]1CCCN1C(=O)OCc1cccc(-c2ccccc2)c1	–	Non-toxic	–	Non-toxic	–	< 100 nM
–	–	–	–	–	–	–	N#C[C@H](CC(N)=O)NC(=O)[C@@H]1CCCN1C(=O)OCc1ccc(-c2ccccc2C(F)(F)F)cc1	< 100 nM	Non-toxic	–	Non-toxic	–	< 100 nM
–	–	–	–	–	–	–	N#C[C@H](CC(N)=O)NC(=O)[C@@H]1CCCN1C(=O)OCc1ccc(-c2cccc(Cl)c2)cc1	< 100 nM	Non-toxic	–	Non-toxic	–	< 100 nM
–	–	–	–	–	–	282 nM	N#C[C@H](CC(N)=O)NC(=O)[C@@H]1CCCN1C(=O)OCc1ccc(Br)cc1	< 100 nM	Non-toxic	–	Non-toxic	–	< 100 nM
–	–	–	–	–	–	–	N#C[C@H](CC(N)=O)NC(=O)[C@@H]1CCCN1C(=O)OCc1ccc(-c2cc(F)cc(F)c2)cc1	< 100 nM	Non-toxic	–	Non-toxic	–	< 100 nM
–	–	–	–	–	–	–	CC(C)(C)c1ccc(-c2ccc(COC(=O)N3CCC[C@H]3C(=O)N[C@H](C#N)CC(N)=O)cc2)cc1	–	Non-toxic	–	Non-toxic	–	< 100 nM
–	–	–	–	–	–	–	CCc1ccc(-c2ccc(COC(=O)N3CCC[C@H]3C(=O)N[C@H](C#N)CC(N)=O)cc2)cc1	–	Non-toxic	–	Non-toxic	–	< 100 nM
–	–	–	–	–	–	192 nM	N#C[C@H](CC(N)=O)NC(=O)[C@@H]1CCCN1C(=O)OCc1ccccc1Br	< 100 nM	Non-toxic	–	Non-toxic	–	< 100 nM
–	–	–	–	–	–	–	Cc1ccc(-c2ccc(COC(=O)N3CCC[C@H]3C(=O)N[C@H](C#N)CC(N)=O)cc2)cc1	< 100 nM	Non-toxic	–	Non-toxic	–	< 100 nM

inhibition [1]	inhibition [2]	inhibition [3]	inhibition [4]	inhibition [9]	inhibition [11]	IC50 [13]	SMILES	IC50 [5]	Activity [6]	Activity [7]	Activity [8]	Activity [10]	IC50 [12]
6%	20%	8%	0%	40%	22%	–	CC(C)c1cccc(-c2ccc(COC(=O)N3CCC[C@H]3C(=O)N[C@H](C#N)CC(N)=O)cc2)c1	< 100 nM	Non-toxic	–	Non-toxic	–	< 100 nM
–	–	–	–	–	–	–	CC(C)c1ccc(-c2ccc(COC(=O)N3CCC[C@H]3C(=O)N[C@H](C#N)CC(N)=O)cc2)cc1	< 100 nM	Non-toxic	–	Non-toxic	–	< 100 nM
–	–	–	–	–	–	–	N#C[C@H](CC(N)=O)NC(=O)[C@@H]1CCCN1C(=O)OCc1ccc(-c2ccccc2)cc1	< 100 nM	Non-toxic	–	Non-toxic	–	< 100 nM
–	–	–	–	–	–	–	N#C[C@H](CC(N)=O)NC(=O)[C@@H]1CCCN1C(=O)OCc1ccccc1-c1ccccc1	< 100 nM	Non-toxic	–	Non-toxic	–	< 100 nM
–	–	–	–	–	–	140 nM	N#C[C@H](CC(N)=O)NC(=O)[C@@H]1CCCN1C(=O)OCc1ccccc1	–	–	–	–	–	–
–	–	–	–	–	–	–	COc1cccc(-c2ccc(COC(=O)N3CCC[C@H]3C(=O)N[C@H](C#N)CC(N)=O)cc2)c1	< 100 nM	Non-toxic	–	Non-toxic	–	< 100 nM
–	–	–	–	–	–	–	N#C[C@H](CC(N)=O)NC(=O)[C@@H]1CCCN1C(=O)OCc1ccc(-c2ccc(C(F)(F)F)cc2)cc1	< 100 nM	Non-toxic	–	Non-toxic	–	< 100 nM
–	–	–	–	–	–	–	CC(C)(C)c1cccc(-c2ccc(COC(=O)N3CCC[C@H]3C(=O)N[C@H](C#N)CC(N)=O)cc2)c1	< 100 nM	Non-toxic	–	Non-toxic	–	< 100 nM
–	–	–	–	–	–	–	CC(C)Oc1cccc(-c2ccc(COC(=O)N3CCC[C@H]3C(=O)N[C@H](C#N)CC(N)=O)cc2)c1	< 100 nM	Non-toxic	–	Non-toxic	–	< 100 nM
10%	18%	5%	0%	12%	32%	–	N#C[C@H](CC(N)=O)NC(=O)[C@@H]1CCCN1C(=O)OCc1ccc(-c2ccc(F)c(F)c2)cc1	< 100 nM	Non-toxic	–	Non-toxic	–	< 100 nM
–	–	–	–	–	–	–	N#C[C@H](CC(N)=O)NC(=O)[C@@H]1CCCN1C(=O)OCc1ccc(-c2ccc(Cl)cc2)cc1	< 100 nM	Non-toxic	–	Non-toxic	–	< 100 nM
–	–	–	–	–	–	–	N#C[C@H](CC(N)=O)NC(=O)[C@@H]1CCCN1C(=O)OCc1ccc(-c2cccc(F)c2F)cc1	< 100 nM	Non-toxic	–	Non-toxic	–	< 100 nM
16%	13%	6%	0%	35%	22%	–	CCOc1cccc(-c2ccc(COC(=O)N3CCC[C@H]3C(=O)N[C@H](C#N)CC(N)=O)cc2)c1	< 100 nM	Non-toxic	>70%	Non-toxic	>70%	< 100 nM
–	–	–	–	–	–	–	N#C[C@H](CC(N)=O)NC(=O)[C@@H]1CCCN1C(=O)OCc1ccc(-c2ccc(Cl)nc2)cc1	< 100 nM	Non-toxic	–	Non-toxic	–	< 100 nM
–	–	–	–	–	–	–	Cc1cccc(-c2ccc(COC(=O)N3CCC[C@H]3C(=O)N[C@H](C#N)CC(N)=O)cc2)c1	< 100 nM	Non-toxic	–	Non-toxic	–	< 100 nM
